Take `Cc1cc(C)c(CC(C)CC(C(=O)C(CC(C)Cc2c(C)cc(C)cc2C)N2C(=O)c3ccccc3C2=O)N2C(=O)c3ccccc3C2=O)c(C)c1` (stereo unspecified): the melting point (usually the temperature, or range, at which the solid turns liquid) fell in the range of 131 to 132 °C.

For the compound `COc1ccc(-c2nc(CCBr)nc3cc(OC)c(OC)cc23)cc1OC`, the melting point is 166 to 167 °C.

`CCCc1cnc2c(c1)C(=O)N1C2=NC(=O)C1(C)C(C)C` (stereo unspecified) showed a melting point of 116 °C.

Compound `O=C(NCC12CC3CC(CC(C3)C1)C2)c1cc(CCCNCCCO)cnc1Cl` had a melting point of 105 to 107 °C.

In turn, `O=[N+]([O-])c1c(F)cc(Br)c(OCCCl)c1Br` had a melting point of 56 °C.

On to `COC(=O)Cc1ccc2c(c1)C(=O)c1ccccc1CO2`, for which the melting point was in the range of 74 to 76 °C.

Compound `O=C(CCCCCl)c1ccc2c(c1)Cc1cc(C(=O)CCCCCl)ccc1-2` gave a melting point of 124 to 125 °C.

In the case of `CCC(NC(C)=O)C(=O)O` (stereo unspecified), the melting point lay in the range of 128 to 130 °C.

For `COc1cc(C(C)=O)cc(Br)c1Oc1nc(C)nc(N2CCOCC2)n1`, the melting point is 159 to 162 °C.

`CC(=O)N[C@@H](CSC(c1ccccc1)(c1ccccc1)c1ccccc1)C(=O)NCCSC(=O)C(C)(C)C`: the melting point lay in the range of 212 to 213 °C.

For the compound `CCOC(=O)c1cc(C(=O)OCC)cc([N+](=O)[O-])c1`, the melting point was found to be 83.5 °C.

The compound `Oc1ccc(C(F)(F)F)cc1-n1nc2ccccc2n1` registered a melting point of 119 to 120 °C.

On to `NS(=O)c1ccccc1` (stereo unspecified), for which the melting point was in the range of 112 to 115 °C.

The compound `CC(C)C(C(=O)NC1CCCCC1)N1CC(=O)NCC(=O)NCC(=O)NCC(=O)NCC(=O)NCC1=O` (stereo unspecified) showed a melting point of 275 °C.

`Cc1oc2cc(O)ccc2c(=O)c1C#N`: the melting point is more than 300 °C.

For the compound `Cc1ncn(Cc2ccc(NC(=O)C(F)(F)F)cc2C(F)(F)F)c1C`, the melting point was in the range of 238 to 239 °C.

`CCc1ccc2oc3cc(C#N)cnc3c(=O)c2c1` gave a melting point of 183 to 185 °C.

In turn, `CC(C)C1Cc2cnc3c(c2C1(O)CCN)CCO3` (stereo unspecified) registered a melting point of 142 to 143 °C.

With `Cc1c(O)ccc(S)c1C`, the melting point fell in the range of 98 to 99 °C.

For `O=S(=O)(Nc1ccccc1CO)C(F)(F)F`, the melting point was in the range of 60 to 61 °C.

For the compound `Cc1cn(C(C)(C)C(=O)N(C)C)nc1-c1ccccc1F`, the melting point fell in the range of 112 to 114 °C.

As for `CC(C)(C)OC(=O)N1CCC(Oc2ccccc2C(C)(C)C)C1` (stereo unspecified), the melting point fell in the range of 81 to 82 °C.

As for `COc1ccc(Cl)cc1NC(=O)[C@H]1[C@H](c2cccc(C)c2)C1(C)C` (relative stereo), the melting point lay in the range of 148 to 150 °C.

`CCc1nnc2ccc(-c3cccc(C(F)(F)F)c3)nn12` gave a melting point of 183 to 185 °C.

Compound `COc1ccccc1C(=O)N1CCN(C(=O)CNC2CCN(Cc3ccccc3)CC2)C(c2ccc(Cl)c(Cl)c2)C1` (racemic) had a melting point of 71 to 73 °C.

For `O=C1OC(CN2CCC(n3c(=O)[nH]c4ccccc43)CC2)CN1c1ccccc1` (stereo unspecified), the melting point is 210 to 212 °C.

`Cc1cc(C)c(C2CN(c3cc4[nH]cc(C(=O)O)c(=O)c4cc3F)CCN2)o1` (stereo unspecified) returned a melting point of 230 to 232 °C.

`COc1cc(C(OC(C)=O)C(=O)O)cc(OC)c1OC` (stereo unspecified): the melting point was 135 to 139 °C.

As for `O=C(Oc1cc(F)ccc1[N+](=O)[O-])c1cc2cc(CCl)ccc2oc1=O`, the melting point was 205 to 208 °C.

Regarding `O=C(NCCO)c1cnc(-c2ccccc2)s1`, the melting point is 149 to 152 °C.

Take `CCOC(=O)c1[nH]c2c(c1OCC1CO1)CCCC2` (stereo unspecified): the melting point fell in the range of 102 to 104 °C.

In turn, `COc1cc(Nc2nccc(-c3ccc(NC4CCCCC4O)nc3)n2)cc(OC)c1OC` (stereo unspecified) displayed a melting point of 147 to 148 °C.

`O=C(O)c1ccccc1SSc1ccc([N+](=O)[O-])cc1C(Cl)(Cl)Cl` came in with a melting point of 224 °C.

For the compound `CCCC(=O)N(CC)c1cccc(-c2ccc3nnc(C)n3n2)c1`, the melting point was in the range of 127 to 129 °C.

`CC12CCC(OC(=O)COc3ccccc3)CC1=CCC1C2CCC2(C)C(=NO)CCC12` (stereo unspecified) displayed a melting point of 118 to 122 °C.

In turn, `COc1cc(-c2c(Cl)c(CN3C(=O)CCC3=O)nc3sc4c(c23)CCN(C(C)=O)C4)ccc1O` displayed a melting point of 273 to 275 °C.

`CN1C(=O)C(C(=O)Nc2ccc(F)cc2)S(=O)(=O)c2ccc(Cl)cc21` (stereo unspecified) displayed a melting point of 234 to 236 °C.

`O=Cc1ccc(OCc2coc(/C=C/c3ccc(S(=O)C(F)(F)F)cc3)n2)cc1` (stereo unspecified) had a melting point of 144 to 147 °C.

`COc1ccnc(CCc2nc3cc(-c4ccc(S(=O)(=O)N5CCC(C)CC5)cc4)cnc3[nH]2)c1` came in with a melting point of 186 to 188 °C.

The compound `C=CCc1c(O)c(C(=O)OC)cc(Cl)c1NC(C)=O` gave a melting point of 189 to 190 °C.

Consider `Cc1ccc(S(=O)(=O)NNC2=CC(=O)CC(c3ccccc3Cl)C2)cc1` (stereo unspecified), for which the melting point was in the range of 235 to 236 °C.

The compound `CN(c1cccc2cc(C(=O)NCC(C)(CCO)SCc3ccccc3)[nH]c12)S(=O)(=O)c1cccs1` (stereo unspecified) yielded a melting point of 132 to 133 °C.

`Cc1c(C=NO)c2ccccc2n1-c1ccc(OCc2ccccc2)c(F)c1` yielded a melting point of 167 to 168 °C.

`NNC(=O)NCCS(=O)(=O)O` gave a melting point of 212 to 215 °C.

Compound `CC12CC=C3C(CCC4(CCSc5ncccn5)CC(O)CCC34C)C1CCC2O` (stereo unspecified) came in with a melting point of 156 °C.

With `CC1(C)CCC(C)(C)c2cc3c(cc21)OCC3(C)c1cc(CO)cs1` (stereo unspecified), the melting point stood at 127 °C.

For `COc1nc(-c2ccc(F)cc2)c(-c2ccc(S(C)(=O)=O)cc2)cc1C#N`, the melting point lay within 202 to 204 °C.

For the compound `COc1cn(-c2ccc(N3CC(F)C3)cc2F)nc(-c2ccnn2-c2ccccc2)c1=O`, the melting point was 162 to 163 °C.

For `COC(=O)c1ccc2ccccc2c1OCC(F)(F)F`, the melting point is 69.5 to 70.5 °C.

For `O=C1OC(Cc2ccccc2)(Cc2ccccc2)C2CNCCN12` (stereo unspecified), the melting point fell in the range of 132 to 133 °C.

As for `CC#CCOc1ccc(OCC(=O)OCC)cc1`, the melting point fell in the range of 100 to 105 °C.

The compound `N=C(N)Nc1ccc(CCC(=O)O)cc1` showed a melting point of more than 300 °C.

For the compound `CCCC(=O)OC[C@H]1O[C@@H](n2ccc(OCC)nc2=O)CS1` (relative stereo), the melting point is 59 to 61 °C.

`CC1(C)CC(OC(=O)NN)CC(C)(C)N1` displayed a melting point of 93 to 94 °C.

In the case of `Cc1c(NC(=O)c2ccc(-c3ccc(Cl)cc3)cc2F)ccc2cc(CN3CCCC3)cnc12`, the melting point lay within 181 to 183 °C.

With `O=C(CCl)NCC(CNC(=O)CCl)OC1CCCCO1` (stereo unspecified), the melting point came to 100 °C.

The compound `CSc1cc(C)nc(SC)c1NC(=O)C=CC1=C(c2ccccc2)c2ccccc2OC1` registered a melting point of 225 to 227 °C.

`CCn1ncc2c(NCc3ccc(OC)cc3)c3ccccc3nc21` returned a melting point of 179 to 180 °C.

In turn, `CCN1c2ncc(COc3ccc(O)cc3)cc2C(=O)N(C)c2ccc(Cl)nc21` came in with a melting point of 199 to 200 °C.

`Cc1cc(F)c([N+](=O)[O-])cc1N` gave a melting point of 178 °C.

The compound `N#Cc1cc([N+](=O)[O-])ccc1N1CCCCC1` gave a melting point of 75 °C.

`CC(C)(C)NCC(O)c1cc(Br)c(N)c([N+](=O)[O-])c1` (stereo unspecified) came in with a melting point of 151 to 152 °C.

On to `Cc1cc(Cl)ccc1Cn1nc(OC(C)C)cc1CCCOc1nn(Cc2ccccc2)cc1CC(=O)O`, for which the melting point was 81 to 82 °C.

In the case of `COCc1c(-c2ccon2)ncc2[nH]c3ccc(OCc4ccccc4)cc3c12`, the melting point fell in the range of 123 to 126 °C.

`CC(NCCO)c1ccccc1` (stereo unspecified) came in with a melting point of 60 °C.

For `COC(C)=CC(=O)Nc1cccc(OC(=O)NC2CCCCC2)c1`, the melting point is 200 °C.

With `CCOCCOC(=O)C(=O)Nc1nc(-c2ccccc2)cs1`, the melting point lay in the range of 109 to 110 °C.

Take `CS(=O)(=O)Oc1ccc(CCOc2ccc(-c3ncccc3C(=O)O)cc2C#N)cc1`: the melting point lay in the range of 85 to 86 °C.

On to `On1nnc2cccnc21`, for which the melting point fell in the range of 216 to 217 °C.

Consider `CC1(C)OC(=O)Nc2ccc(-c3coc(C#N)c3)cc21`, for which the melting point fell in the range of 255 to 256 °C.

`CCNC(=O)NC1CCCc2ccccc21` (stereo unspecified): the melting point was in the range of 178 to 179 °C.

`CS(=O)(=O)OCc1cc(OCc2ccccc2)cc(OCc2ccccc2)c1` showed a melting point of 85 to 86 °C.

For the compound `O=C(O)c1ccc2c(c1)C(C(Cl)Cl)OC(C(Cl)(Cl)Cl)O2` (stereo unspecified), the melting point worked out at 209 °C.

Turning to `CNC(=O)c1ccccc1Nc1nc(Nc2ccc3c(c2)CCN(C(=O)C(F)(F)F)CC3)ncc1Cl`, the melting point lay within 192 to 194 °C.

The compound `CC1(C)Oc2ccc([N+](=O)[O-])cc2O1` returned a melting point of 89 to 91 °C.

Consider `Cc1ccc(S(=O)(=O)C(CC=Cc2ccc(Cl)cc2)C(=O)O)cc1` (stereo unspecified), for which the melting point is 162 to 164 °C.

The compound `N#CCCNC(=O)c1cccc(-c2cccc3cc(Cc4cccc(C(F)(F)F)c4)sc23)c1` showed a melting point of 95 to 98 °C.

In the case of `Cc1cccc(C(=O)O)c1N(C)S(=O)(=O)c1ccc(OCCCNC(=O)c2ccc3c(c2)OCO3)cc1`, the melting point amounted to 120 °C.

Consider `O=Cc1ccc2ccccc2c1OCc1ccccc1`, for which the melting point fell in the range of 62 to 63 °C.

In turn, `COCC(=O)c1cccc(S(N)(=O)=O)c1` registered a melting point of 121 to 122 °C.

With `Cc1ncccc1CC(=NC#N)NC(NC(=O)Cc1ccc(Cl)cc1)C(C)(C)C` (stereo unspecified), the melting point fell in the range of 118 to 119 °C.

As for `CC(C)CN1C(=O)C2CC(c3ccc(N)cc3)(C2)C1=O`, the melting point was 158 to 160 °C.

With `CCOCc1nc2c(N)nc3cc(OCc4ccccc4)ccc3c2n1CC(C)(C)NS(C)(=O)=O`, the melting point fell in the range of 264 to 266 °C.

`CN1CCC2(CC1)OC(c1ccccc1)c1ccccc12` (stereo unspecified) displayed a melting point of 123 to 124 °C.

Compound `C[Si](C)(C)Nc1ccn([Si](C)(C)C)c(=O)n1` yielded a melting point of 252 to 256 °C.

`Nc1nc(Cl)c(Cl)nc1CO` had a melting point of 174 to 176 °C.

On to `CC1(C)CCC(C)(C)c2c1ccc(C=Nc1ccc(C(N)=O)cc1)c2N`, for which the melting point was 247 to 249 °C.

On to `CC(C(=O)NN1CCOCC1)C(C#N)(c1ccccc1)c1ccccc1` (stereo unspecified), for which the melting point fell in the range of 210 to 215 °C.

For the compound `CCOC1CC(n2cc(CC)c(=O)[nH]c2=O)OC1CN` (stereo unspecified), the melting point lay within 122 to 123 °C.

Regarding `COc1ccccc1N(C)[C@@H](C)[C@H](O)c1ccccc1`, the melting point was in the range of 84 to 86 °C.

`CC1(C)CCc2cc(O)c(O)cc2C1=O` returned a melting point of 163 to 165 °C.

These data come from a melting point compilation (Tetko et al.; mined from patent text by program, amines drawn as free bases though some values may be those of a salt).
